13 molecules from PubChem BioAssay (NCI) can be followed below.

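48-hour exposure; five concentrations; linearly interpolated endpoints. TGI: concentration producing complete growth inhibition.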

Test systems include SK-OV-3 ovarian; SF-539 CNS; OVCAR-3 ovarian; UO-31 renal; DU-145 prostate; U251 CNS; HOP-92 NSCLC; HT29 colon; SNB-19 CNS; IGROV1 ovarian; OVCAR-4 ovarian; A498 renal; SK-MEL-2 melanoma; NCI-H522 lung; BT-549 breast; T-47D breast; NCI-H23 lung.
Holding throughout (assay): NCI tumour cell line growth inhibition, 48 h

For the molecule `C1CSCCSCCSCCSCCS1`, the TGI in the assay on SK-OV-3 ovarian, in the assay with SF-539 CNS, with OVCAR-3 ovarian, in the assay on UO-31 renal, in the assay on DU-145 prostate and in the assay on U251 CNS was greater than 100 µM throughout. The TGI in the assay with HOP-92 NSCLC, with HT29 colon, in the assay with SNB-19 CNS, with IGROV1 ovarian, in the assay with OVCAR-4 ovarian and in the assay on A498 renal was greater than 100 µM each time. Moreover, the TGI with SK-MEL-2 melanoma, in the assay with NCI-H522 lung, with BT-549 breast, with T-47D breast and in the assay with NCI-H23 lung was greater than 100 µM throughout.
Consider `Nc1ncnc2c1ccn2CC#CCO`, for which the TGI in the assay with SK-OV-3 ovarian, with SF-539 CNS, with OVCAR-3 ovarian, in the assay with UO-31 renal, in the assay on DU-145 prostate and in the assay on U251 CNS was greater than 100 µM in each case. For the same molecule, the TGI in the assay with HOP-92 NSCLC, in the assay with HT29 colon, in the assay on SNB-19 CNS, with IGROV1 ovarian, in the assay with OVCAR-4 ovarian and with A498 renal was greater than 100 µM in each case. In addition, the TGI in the assay with SK-MEL-2 melanoma, with NCI-H522 lung, in the assay with BT-549 breast, in the assay with T-47D breast and in the assay with NCI-H23 lung was greater than 100 µM in each case.
With `CCCCCN1C(=O)C(Cc2ccccc2)N=C(c2ccc(O)cc2)c2cc(Cl)ccc21` (centres undefined), the TGI was determined as 41.1 µM with SK-OV-3 ovarian; 38.9 µM in the assay on SF-539 CNS; 45.1 µM with OVCAR-3 ovarian; 25.3 µM in the assay with UO-31 renal; 30.9 µM with DU-145 prostate; 27.2 µM in the assay with U251 CNS. For the same molecule, the TGI in the assay with HOP-92 NSCLC was 25 µM; in the assay on HT29 colon it was 25.6 µM; in the assay with SNB-19 CNS, 33.7 µM; in the assay with IGROV1 ovarian, 23.9 µM; in the assay with OVCAR-4 ovarian, 22.1 µM; in the assay with A498 renal, greater than 48.4 µM. The TGI with SK-MEL-2 melanoma was found to be 34.4 µM; in the assay on NCI-H522 lung, 17.2 µM; in the assay on BT-549 breast, 33.4 µM; in the assay with T-47D breast, 12.4 µM; in the assay with NCI-H23 lung it was 17.7 µM.
`c1ccc2c(c1)CCN1CCc3ccccc3C1C2` (centres undefined): the TGI in the assay on SK-OV-3 ovarian was greater than 100 µM; in the assay with SF-539 CNS, 61.5 µM; with OVCAR-3 ovarian, greater than 100 µM; in the assay with UO-31 renal it was 68.9 µM; in the assay with DU-145 prostate, greater than 100 µM; in the assay on U251 CNS it was greater than 100 µM. Besides, the TGI with HOP-92 NSCLC, in the assay on HT29 colon, with SNB-19 CNS, with IGROV1 ovarian, in the assay with OVCAR-4 ovarian and with A498 renal was greater than 100 µM in each case. Moreover, the TGI with SK-MEL-2 melanoma, with NCI-H522 lung, in the assay on BT-549 breast, in the assay with T-47D breast and in the assay with NCI-H23 lung was greater than 100 µM in each case.
For the molecule `Cc1ccc(NC(=O)c2cccc(OP(=O)(Nc3ccc(C)cc3)Nc3ccc(C)cc3)c2)cc1`, the TGI with SK-OV-3 ovarian is greater than 100 µM; in the assay with SF-539 CNS, greater than 100 µM; with OVCAR-3 ovarian it was greater than 100 µM; with UO-31 renal, 45.3 µM; in the assay with DU-145 prostate it was greater than 100 µM; in the assay on U251 CNS, greater than 100 µM. The TGI was 8.93 µM with HOP-92 NSCLC; 14.9 µM in the assay on HT29 colon; greater than 100 µM in the assay on SNB-19 CNS; greater than 100 µM in the assay on IGROV1 ovarian; 61.9 µM with OVCAR-4 ovarian; 62.3 µM in the assay with A498 renal. Besides, the TGI is greater than 100 µM with SK-MEL-2 melanoma; 12 µM in the assay on NCI-H522 lung; greater than 100 µM in the assay with BT-549 breast; greater than 100 µM in the assay with T-47D breast; greater than 100 µM with NCI-H23 lung.
`CC(C)(C)OC(=O)N(O)CCCn1cnc2c(NC3CC3)ncnc21`: the TGI in the assay with SK-OV-3 ovarian, in the assay on SF-539 CNS, in the assay with OVCAR-3 ovarian, in the assay with UO-31 renal, with DU-145 prostate and in the assay on U251 CNS was greater than 100 µM throughout. Also, the TGI in the assay with HOP-92 NSCLC, in the assay on HT29 colon, in the assay on SNB-19 CNS, in the assay on IGROV1 ovarian, with OVCAR-4 ovarian and in the assay with A498 renal was greater than 100 µM in each case. The TGI with SK-MEL-2 melanoma, with NCI-H522 lung, with BT-549 breast, with T-47D breast and with NCI-H23 lung was greater than 100 µM each time.
Consider `N#Cc1c(C#N)c(SSc2c(C#N)c(C#N)c(N)n2-c2cccc3ccccc23)n(-c2cccc3ccccc23)c1N`, for which the TGI in the assay on SK-OV-3 ovarian was 54.8 µM; in the assay with SF-539 CNS, 35.7 µM; with UO-31 renal, 6.02 µM; in the assay on DU-145 prostate, 47.6 µM; in the assay with U251 CNS, 40 µM; in the assay on HOP-92 NSCLC, 13.6 µM. The TGI was 39.2 µM in the assay on HT29 colon; 46.4 µM with SNB-19 CNS; greater than 100 µM in the assay on IGROV1 ovarian; 41.9 µM in the assay with OVCAR-4 ovarian; greater than 63.6 µM in the assay with A498 renal; 34.8 µM in the assay on SK-MEL-2 melanoma. The TGI was 3.15 µM with NCI-H522 lung, 12.6 µM with BT-549 breast, 5.47 µM in the assay on T-47D breast and greater than 63.2 µM in the assay on NCI-H23 lung.
In the case of `O=C1CSC(c2ccccc2)N1c1ccc(-c2ccc(-n3c(-c4ccccc4)nc4ccccc4c3=O)cc2)cc1` (centres undefined), the TGI with SK-OV-3 ovarian, in the assay with OVCAR-3 ovarian, in the assay on UO-31 renal, in the assay on DU-145 prostate, with U251 CNS and in the assay on HOP-92 NSCLC was greater than 100 µM in each case. Further, the TGI in the assay on HT29 colon, in the assay with SNB-19 CNS, in the assay with IGROV1 ovarian, in the assay on OVCAR-4 ovarian, with A498 renal and in the assay with SK-MEL-2 melanoma was greater than 100 µM in each case. The TGI in the assay on NCI-H522 lung, in the assay with BT-549 breast, in the assay on T-47D breast and with NCI-H23 lung was greater than 100 µM each time.
With `O=C(c1ccccc1)c1ccc(N2C(=O)/C(=C/c3cccc(Oc4ccccc4)c3)N=C2c2ccccc2)c(N2C(=O)/C(=C/c3cccc(Oc4ccccc4)c3)N=C2c2ccccc2)c1`, the TGI in the assay with SK-OV-3 ovarian is greater than 100 µM; in the assay with OVCAR-3 ovarian, 69.8 µM; in the assay on UO-31 renal it was greater than 100 µM; with DU-145 prostate it was greater than 100 µM; with U251 CNS, greater than 100 µM; in the assay on HOP-92 NSCLC, greater than 100 µM. In addition, the TGI is greater than 100 µM with HT29 colon; greater than 100 µM with SNB-19 CNS; greater than 100 µM in the assay with IGROV1 ovarian; greater than 100 µM in the assay on OVCAR-4 ovarian; greater than 100 µM with A498 renal; 71.2 µM with SK-MEL-2 melanoma. Further, the TGI in the assay on NCI-H522 lung was 51 µM; with BT-549 breast, greater than 100 µM; with T-47D breast, greater than 100 µM; with NCI-H23 lung it was greater than 100 µM.
As to `COC(C)=NCCC1=CCCCC1`, the TGI with SK-OV-3 ovarian, with OVCAR-3 ovarian, in the assay with UO-31 renal, in the assay with DU-145 prostate, in the assay on U251 CNS and in the assay with HOP-92 NSCLC was greater than 100 µM throughout. The TGI with HT29 colon, with SNB-19 CNS, in the assay with IGROV1 ovarian, in the assay with OVCAR-4 ovarian, in the assay on A498 renal and in the assay on SK-MEL-2 melanoma was greater than 100 µM in each case. Moreover, the TGI with NCI-H522 lung, with BT-549 breast, in the assay on T-47D breast and in the assay with NCI-H23 lung was greater than 100 µM each time.
As for `Cc1cc(-c2nc3cc(F)ccc3s2)ccc1N`, the TGI in the assay with SK-OV-3 ovarian was greater than 100 µM; in the assay with SF-539 CNS, 46.1 µM; with OVCAR-3 ovarian, greater than 68 µM; in the assay with UO-31 renal, 99.4 µM; in the assay on DU-145 prostate, greater than 92.1 µM; in the assay on U251 CNS it was greater than 91.7 µM. For the same molecule, the TGI in the assay with HOP-92 NSCLC was greater than 78 µM; in the assay on HT29 colon it was greater than 100 µM; in the assay with SNB-19 CNS, greater than 88.5 µM; in the assay on IGROV1 ovarian, greater than 100 µM; with A498 renal, 66.8 µM; with SK-MEL-2 melanoma, greater than 68.4 µM. For the same molecule, the TGI in the assay on NCI-H522 lung is greater than 100 µM; in the assay on BT-549 breast, greater than 100 µM; in the assay with T-47D breast, greater than 100 µM; in the assay on NCI-H23 lung it was greater than 84.2 µM.
With `O=C(Nn1c(-c2ccccc2)nc2ccccc2c1=O)c1cccc([N+](=O)[O-])c1`, the TGI with SK-OV-3 ovarian, in the assay on SF-539 CNS, with OVCAR-3 ovarian, with UO-31 renal, with DU-145 prostate and in the assay on U251 CNS was greater than 100 µM in each case. Also, the TGI in the assay on HOP-92 NSCLC, in the assay on HT29 colon, in the assay with SNB-19 CNS, with IGROV1 ovarian, in the assay on OVCAR-4 ovarian and in the assay on A498 renal was greater than 100 µM throughout. The TGI in the assay with NCI-H522 lung, in the assay with BT-549 breast, in the assay on T-47D breast and with NCI-H23 lung was greater than 100 µM in each case.
Consider `CCOC(=O)N1c2ccccc2N(C(=O)OCC)C1CC(=O)/C=C/c1ccccc1`, for which the TGI in the assay with SK-OV-3 ovarian amounted to 23 µM; in the assay on OVCAR-3 ovarian, 9.95 µM; in the assay with UO-31 renal, 14.7 µM; with DU-145 prostate it was 9.11 µM; in the assay with U251 CNS, 12.8 µM; in the assay on HOP-92 NSCLC it was 6.16 µM. Moreover, the TGI in the assay with HT29 colon was 8.41 µM; with SNB-19 CNS it was 16.8 µM; with IGROV1 ovarian, 17.8 µM; in the assay on OVCAR-4 ovarian, 6.33 µM; in the assay on A498 renal, 10.6 µM; in the assay on SK-MEL-2 melanoma, 7.38 µM. Moreover, the TGI in the assay on NCI-H522 lung is 6.42 µM; in the assay with BT-549 breast it was 9.84 µM; with T-47D breast, greater than 100 µM; in the assay with NCI-H23 lung it was 8.7 µM.
